The test has as its target T1, IRAK4 (Homo sapiens, UniProt Q9NWZ3).
T1 construct: endogenous in cells; host or cells: THP-1 cells
T1 sequence (Q9NWZ3 1-460): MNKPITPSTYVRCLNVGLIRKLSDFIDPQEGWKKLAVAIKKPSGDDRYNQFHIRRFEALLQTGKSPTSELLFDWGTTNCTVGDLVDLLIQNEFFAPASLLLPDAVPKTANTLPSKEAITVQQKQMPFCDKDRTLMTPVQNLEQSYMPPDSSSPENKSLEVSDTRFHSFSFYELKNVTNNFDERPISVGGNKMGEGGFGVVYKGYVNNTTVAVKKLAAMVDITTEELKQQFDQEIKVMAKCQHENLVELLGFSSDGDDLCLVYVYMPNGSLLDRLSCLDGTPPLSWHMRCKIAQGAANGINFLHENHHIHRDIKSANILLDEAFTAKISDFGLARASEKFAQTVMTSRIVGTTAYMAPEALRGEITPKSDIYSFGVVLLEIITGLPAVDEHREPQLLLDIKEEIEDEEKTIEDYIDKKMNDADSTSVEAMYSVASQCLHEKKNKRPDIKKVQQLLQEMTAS
The test is described as follows: LVL THP1 HTRF (THP1 Homogeneous Time Resolved Fluorescence). Format: cell-based. The conditions noted are these: THP1 cells, 18 h incubation with compound; for DC50: read-out: LVL THP1 HTRF EC50. The method, then:
Cell culture media was prepared in a tissue culture hood in a sterile environment by adding 10% FBS and 1% Penicillin Streptomycin to 500 mL no phenol red RPMI 1640 media. The media was filtered through a Nalgene Bottle Top Filter and stored at 4° C.
For Homogenous Time Resolved Fluorescence (HTRF) assays, a Cisbio HTRF kit was used, which included: Lysis Buffer #1 4×, Blocking Reagent #3 100×, 20× Antibody 1 (Anti-IRAK4 d2), 20× Antibody 2 (Anti-IRAK4 k), and Detection Buffer.
The THP1 plates were prepared by the following method. For each dosing plate, a duplicate for CTG assay was prepared. Two THP-1 T-175 flasks could be used to plate one 384 well plate. The cells were collected from two T-175 flasks into 200 mL centrifuge tubes and spun down at 1200 rpm for 10 min. The supernatant was removed completely and cells were resuspended in 7.5 mL cell culture media. To 5 μL of the cell suspension was added 25 μL of media and 30 μL of Trypan Blue stain. The cells were counted using countess (automated cell counter, Thermo Fisher Scientific) twice and the viability and live cell count was recorded. The actual cell count was […] the live cell count. Based on the count, a cell suspension was prepared in colorless RPMI media for a final concentration of 7.5e6 cells/mL. Using Standard cassette multidrop combi, 20 μL of the 7.5e6 cells/mL cell stock was added to entire 384 well plate but for top half of column 1 (negative control) The multidrop combi was always primed to achieve a steady flow and washed after use with 20 mL de-ionized water followed by 20 mL alcohol. The cells were incubated in 5% CO2 incubator at 37° C.
Dosing was conducted using the following method. To dose assay plates and CTG plate was added 20 nL of compounds in DMSO using Echo (Beckman Coulter), and the plates were incubated at 37° C. for 18 h. The compound plates were spun at 1200 rpm for 1 min before dosing. The compound plate was sealed and properly stored during incubation.
After dosing, an HTRF assay was conducted using the following method. The treatment plates (IRAK4_HTRF) were centrifuged at 600 g for 10 min. Using CyBio Felix, Automated liquid handler (Analytikjena), 13 μL cell culture media was removed. To all columns, 7.5 μL lysis buffer was added, and an additional 7.5 μL of lysis buffer was added to column 1(top half, negative control). The plate was incubated on a shaker at room temperature for 2 h. The plate was spun down at 600 g for 5 min. Custom 20×IRAK4 Antibody obtained from CISBIO Anti-IRAK4-d2 (acceptor Ab) and Anti-IRAK4-K (donor Ab) were diluted to 1× antibody mix Using a multichannel repeater, 4 μL of 1× antibody mix was added to each wellThe plate was spun down at 600 g for 5 min and incubated in the dark at room temperature for 18 h The next day (after 18 hrs), HTRF assay plate was spun down at 600 g for 5 min and read at 665/615 nm using a Envision plate reader.
In general terms: TR-FRET usually uses a lanthanide donor and a delayed reading to cut background.

Structures are written as SMILES.

As to `C[C@H](C#N)Nc1nc(-n2ncc3cc(C#N)cnc32)ncc1-n1cc([C@H]2CC[C@H](CCN3CCN(c4ccc(C5CCC(=O)NC5=O)cc4)CC3)CC2)nn1` (some centres unmarked) [P-377], the “LVL THP1 HTRF YMIN” value was determined as 3.4% and the DC50 worked out at 8.3 nM. Take `C[C@H](C#N)Nc1cc(-n2ncc3cc(C#N)cnc32)ncc1-n1cc([C@H]2CC[C@H](CCN3CCC(c4ccc([C@@]5(F)CCC(=O)NC5=O)cc4)CC3)CC2)nn1` (single isomer, unassigned) [P-337]: the “LVL THP1 HTRF YMIN” value is reported as 2.7% and the DC50 turned out to be 3.8 nM. For the molecule `C[C@H](C#N)Nc1cc(-n2ncc3cc(C#N)c(N)nc32)ncc1-n1cc([C@H]2CC[C@H](CCN3CCN(c4ccc([C@@]5(C)CCC(=O)NC5=O)nc4)CC3)CC2)nn1` (single isomer, unassigned) [P-306], the “LVL THP1 HTRF YMIN” value came to 1.5% and the DC50 was found to be 3.7 nM.

`C[C@H](C#N)Nc1cc(-n2ncc3cc(C#N)cnc32)ncc1-n1cc([C@H]2CC[C@H](CCN3CCC(c4ccc([C@@]5(C)CCC(=O)NC5=O)cc4)C(F)(F)C3)CC2)nn1` (single isomer, unassigned) [P-417]: the “LVL THP1 HTRF YMIN” value worked out at 1.8% and the DC50 amounted to 51.4 nM. On the same counts, the results for `C[C@H](C#N)Nc1cc(-n2ncc3cc(C#N)cnc32)ncc1-n1cc([C@H]2CC[C@H](CCN3CCN(c4ccc(C5(C)CCC(=O)NC5=O)cc4)CC3)CC2)nn1` (single isomer, unassigned) [P-204] are 1.8% and 7 nM. With `C[C@H](C#N)Nc1cc(-n2ncc3cc(C#N)cnc32)ncc1-c1cnn([C@H]2CC[C@H](CCN3CCN(c4ccc(C5CCC(=O)NC5=O)cc4)CC3)CC2)c1` (some centres unmarked) [P-203], the DC50 amounted to 11 nM. On the same count and under the same terms, with `C[C@H](C#N)Nc1cc(-n2ncc3cncnc32)ncc1-n1cc([C@H]2CC[C@H](CCN3CCN(c4ccc([C@@]5(C)CCC(=O)NC5=O)cc4)CC3)CC2)nn1` [P-225] the figure was 133 nM. With `N#Cc1cnc2c(cnn2-c2cc(NC3CCOCC3)c(-n3cc([C@H]4CC[C@H](CCN5CCN(c6ccc(C7CCC(=O)NC7=O)cc6)CC5)CC4)nn3)cn2)c1` (some centres unmarked) [P-406], the “LVL THP1 HTRF YMIN” value is reported as 1.7% and the DC50 came out at 7.6 nM. Consider `C[C@H](C#N)Nc1cc(-c2ccc3cc(C#N)cnn23)ncc1-n1cc([C@H]2CC[C@H](CCN3CCN(c4ccc([C@@]5(C)CCC(=O)NC5=O)cc4)CC3)CC2)nn1` [P-230], for which the DC50 was determined as 7 nM. For `C[C@H](C#N)Nc1cc(-n2ncc3cc(C#N)c(N4C[C@H]5C[C@@H]4CO5)nc32)ncc1-n1cc([C@H]2CC[C@H](CCN3CCC(c4ccc([C@@]5(F)CCC(=O)NC5=O)cc4)CC3)CC2)nn1` (single isomer, unassigned) [P-319], the “LVL THP1 HTRF YMIN” value was 87.9% and the DC50 was determined as 1000 nM. On the same counts, the results for `C[C@H](C#N)Nc1cc(-n2ncc3cc(C#N)c(N)nc32)ncc1-n1cc(C2CCC(CCN3[C@H](C)CN(c4ccc([C@@]5(C)CCC(=O)NC5=O)cc4)C[C@H]3C)CC2)nn1` (some centres unmarked) [P-242] are 2.5% and 23 nM. As for `C[C@H](C#N)Nc1cc(-n2ncc3cc(C#N)c(N)nc32)ncc1-n1cc([C@H]2CC[C@H](CCN3CC[C@H]4[C@@H]3CCN4c3ccc([C@@]4(C)CCC(=O)NC4=O)cc3)CC2)nn1` (single isomer, unassigned) [P-453], the “LVL THP1 HTRF YMIN” value is on record as 0.6% and the DC50 was 4.6 nM. On the same counts, the results for `C[C@H](C#N)Nc1cc(-n2ncc3ccc(N4C[C@H]5C[C@@H]4CO5)nc32)ncc1-n1cc([C@H]2CC[C@H](CCN3CCN(c4ccc([C@@]5(C)CCC(=O)NC5=O)cc4)CC3)CC2)nn1` [P-247] are 13.4% and 191 nM. On the same counts, the results for `C[C@H](C#N)Nc1cc(-n2ncc3cc(C#N)cnc32)ncc1C(=O)N[C@H]1CC[C@H](CCN2CC[C@H]3[C@@H]2CCN3c2ccc([C@@]3(C)CCC(=O)NC3=O)cc2)CC1` (single isomer, unassigned) [P-492] are −0.2% and 35 nM. On the same counts, the results for `C[C@H](C#N)Nc1cc(Nc2ncc(C#N)cc2Cl)ncc1-n1cc([C@H]2CC[C@H](CCN3CCN(c4ccc([C@@]5(C)CCC(=O)NC5=O)cc4)CC3)CC2)nn1` [P-297] are 6.5% and 49.3 nM. With `C[C@H](C#N)Nc1cc(Nc2ncc(F)cc2F)ncc1-n1cc([C@H]2CC[C@H](CCN3CCN(c4ccc(C5CCC(=O)NC5=O)cc4)CC3)CC2)nn1` (some centres unmarked) [P-382], the “LVL THP1 HTRF YMIN” value was 4.1% and the DC50 is 28 nM. On the same counts, the results for `CC[C@@H]1CN(CC[C@H]2CC[C@H](c3cn(-c4cnc(-n5ncc6cc(C#N)cnc65)cc4N[C@H](C)C#N)nn3)CC2)CCN1c1ccc(N2CCC(=O)NC2=O)cc1` [P-393] are −3.4% and 6.1 nM. On the same counts, the results for `C[C@H](C#N)Nc1cc(Nc2ncc(C#N)cc2Cl)ncc1-n1cc([C@H]2CC[C@H](CCN3CCN(c4ccc(N5CCC(=O)NC5=O)cn4)[C@H](C)C3)CC2)nn1` [P-455] are −5.9% and 7.8 nM. On the same counts, the results for `C[C@H](C#N)Nc1cc(Nc2ncc(C#N)cc2F)ncc1-n1cc([C@H]2CC[C@H](CCN3CCN(c4ccc(C5CCC(=O)NC5=O)cc4)CC3)CC2)nn1` (some centres unmarked) [P-381] are 2.1% and 8.3 nM. Take `C[C@H](C#N)Nc1cc(-n2ncc3cc(C#N)cnc32)ncc1-n1cc([C@H]2CC[C@H](CCN3CCN(c4ccc5c(N6CCC(=O)NC6=O)nn(C)c5c4)[C@@H](C)C3)CC2)nn1` [P-502]: the “LVL THP1 HTRF YMIN” value is listed as −0.79% and the DC50 amounted to 1.2 nM. Regarding `C[C@H](C#N)Nc1cc(-n2ncc3cc(C#N)cnc32)ncc1-n1cc([C@H]2CC[C@](O)(CCN3CCN(c4ccc(N5CCC(=O)NC5=O)cc4)CC3)CC2)nn1` (single isomer, unassigned) [P-429], the “LVL THP1 HTRF YMIN” value was determined as 5.4% and the DC50 is 59.4 nM. In the case of `C[C@H](C#N)Nc1cc(-n2ncc3cc(C#N)cnc32)ncc1-c1cc([C@H]2CC[C@H](CCN3CCN(c4ccc(C5CCC(=O)NC5=O)cc4)CC3)CC2)on1` (some centres unmarked) [P-196], the DC50 is 167 nM.

For `C[C@H](C#N)Nc1cc(-n2ncc3cc(C#N)cnc32)ncc1-c1cc(C2CCC(CCN3CCN(c4ccc(C5CCC(=O)NC5=O)cc4)CC3)CC2)on1` (some centres unmarked) [P-196], the “LVL THP1 HTRF YMIN” value is given as 3.5%.

For `CC(C#N)Nc1cc(-n2ncc3cc(C#N)cnc32)ncc1-n1cc(C2CCC(C(C)CN3CCN(c4ccc(C5CCC(=O)NC5=O)cc4)CC3)CC2)nn1` (centres unmarked) [P-213], the “LVL THP1 HTRF YMIN” value came to 1.7% and the DC50 turned out to be 2 nM. With `C[C@H](C#N)Nc1cc(-n2ncc3cnc(N)nc32)ncc1-n1cc([C@H]2CC[C@H](CCN3CCN(c4ccc([C@@]5(C)CCC(=O)NC5=O)cc4)CC3)CC2)nn1` [P-228], the DC50 was 9 nM. As to `C[C@H](C#N)Nc1cc(-n2ncc3cc(C#N)cnc32)ncc1-n1cc(C2CCC(CCN3C[C@@H](C)N(c4ccc(C5CCC(=O)NC5=O)cc4)C[C@@H]3C)CC2)nn1` (some centres unmarked) [P-208], the “LVL THP1 HTRF YMIN” value was found to be 1.4% and the DC50 was 9 nM. On the same counts, the results for `C[C@H](C#N)Nc1cc(-n2ncc3cc(C#N)cnc32)ncc1-n1cc([C@H]2CC[C@H](CCN3CCN(c4ccc(N5CCC(=O)NC5=O)cc4)[C@H](C)C3)CC2)nn1` [P-358] are 0.6% and 4.8 nM. As for `C[C@H](C#N)Nc1cc(-n2ncc3cc(C#N)cnc32)ncc1-c1cn([C@H]2CC[C@H](CCN3CCN(c4ccc(N5CCC(=O)NC5=O)cc4)[C@H](C)C3)CC2)nn1` [P-501], the “LVL THP1 HTRF YMIN” value was −2.28% and the DC50 is 2.2 nM.

For the origin of these results see patent publication US20240109881A1, “Heteroaryl Compounds as Ligand Directed Degraders of IRAK4” (Bristol-Myers Squibb Company, priority 2022, published 2024).
